The results in this text go back to PubChem BioAssay (NCI).

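Step 1: Grow cells in 96-well plates. Step 2: Expose to compound for 48 hours at 5 concentrations. Step 3: Interpolate endpoints linearly; if unreached, use highest concentration. GI50: concentration for 50% inhibition of growth. At the TGI there is no net growth.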

Test systems include BT-549 breast; DU-145 prostate; EKVX NSCLC; HL-60(TB) leukemia; MOLT-4 leukemia; NCI-H226 lung; NCI-H522 lung; UACC-257 melanoma; UACC-62 melanoma; SNB-75 CNS.
Experiment in all cases: NCI anticancer screen, dose series, 48 h

For `CCCCCCCCCCCCCCCCOCC(O)CO` (stereo unspecified), the TGI in the test on BT-549 breast is 47 µM; in the test on DU-145 prostate, 34 µM; in the test on EKVX NSCLC, 36.3 µM; in the test with HL-60(TB) leukemia, 23.4 µM; in the test on MOLT-4 leukemia it was 29.6 µM; with NCI-H226 lung it was 40 µM. Further, the TGI with NCI-H522 lung worked out at 33.2 µM; in the test with UACC-257 melanoma, 35.7 µM; in the test with UACC-62 melanoma, 35.2 µM.

With `NNC(=O)C(O)C(O)C(=O)NN` (stereo unspecified), the TGI in the test on BT-549 breast, in the test on DU-145 prostate, with EKVX NSCLC, in the test on MOLT-4 leukemia, in the test on NCI-H226 lung and with NCI-H522 lung was more than 100 µM in each case. Also, the TGI with SNB-75 CNS, in the test with UACC-257 melanoma and in the test with UACC-62 melanoma was more than 100 µM in each case.

As to `O=C(c1ccc2ccccc2c1)c1c(C(F)(F)F)n([O-])c2ccc(F)cc2[n+]1=O`, the GI50 was 1.75 µM with BT-549 breast; 1.68 µM in the test on DU-145 prostate; 1.8 µM in the test on EKVX NSCLC; 0.266 µM in the test with HL-60(TB) leukemia; 0.393 µM in the test with MOLT-4 leukemia; 1.96 µM in the test with NCI-H226 lung. For the same molecule, the GI50 with SNB-75 CNS is 1.47 µM; in the test with UACC-257 melanoma, 1.74 µM; in the test on UACC-62 melanoma, 1.6 µM. For the same molecule, the TGI with BT-549 breast worked out at 3.22 µM; with DU-145 prostate, 3.12 µM; with EKVX NSCLC, 3.35 µM; in the test on HL-60(TB) leukemia, 2.23 µM; in the test with MOLT-4 leukemia, 1.97 µM; in the test with NCI-H226 lung, 3.97 µM. Besides, the TGI in the test on SNB-75 CNS amounted to 2.82 µM; with UACC-257 melanoma it was 3.2 µM; in the test on UACC-62 melanoma, 2.95 µM.

For `O=C(O)CCc1nc(-c2ccccc2-n2cccc2)no1`, the TGI in the test on BT-549 breast, in the test on DU-145 prostate, with EKVX NSCLC, in the test on NCI-H226 lung, in the test with NCI-H522 lung and in the test on SNB-75 CNS was more than 100 µM throughout. Moreover, the TGI in the test on UACC-257 melanoma and with UACC-62 melanoma was more than 100 µM each time.

For the molecule `CCCCCCCCCCSC(=N)N`, the GI50 in the test on BT-549 breast is 11.3 µM; in the test on DU-145 prostate, 6.63 µM; with EKVX NSCLC it was 10.3 µM; in the test on NCI-H226 lung it was 6.09 µM; in the test on NCI-H522 lung, 1.56 µM; with SNB-75 CNS, 1.79 µM. Moreover, the GI50 with UACC-257 melanoma was 2.51 µM; in the test with UACC-62 melanoma, 1.98 µM. In addition, the TGI with BT-549 breast amounted to 24.6 µM; with DU-145 prostate, 19.3 µM; with EKVX NSCLC it was 25.3 µM; in the test with NCI-H226 lung it was 23.2 µM; with NCI-H522 lung, 3.47 µM; in the test on SNB-75 CNS it was 4.44 µM. For the same molecule, the values for the TGI with UACC-257 melanoma and with UACC-62 melanoma were 6.32 µM and 4.45 µM, respectively.

Take `CC(N1CCOCC1)C(O)(c1ccccc1)c1ccccn1` (stereo unspecified): the TGI in the test with BT-549 breast, in the test with DU-145 prostate, in the test on EKVX NSCLC, with HL-60(TB) leukemia, in the test on NCI-H226 lung and in the test on NCI-H522 lung was more than 100 µM throughout. Also, the TGI in the test on SNB-75 CNS, in the test with UACC-257 melanoma and in the test on UACC-62 melanoma was more than 100 µM each time.

On to `CN=C(N)N/N=C(\C)c1ccc2c(c1)Cc1ccccc1-2`, for which the GI50 is 10.2 µM in the test with BT-549 breast; 1.12 µM in the test with DU-145 prostate; 2.62 µM in the test with EKVX NSCLC; 0.399 µM in the test with HL-60(TB) leukemia; 0.352 µM with MOLT-4 leukemia; 2 µM in the test on SNB-75 CNS. Moreover, the GI50 in the test with UACC-257 melanoma is 1.96 µM; with UACC-62 melanoma it was 1.5 µM. For the same molecule, the TGI amounted to 27.9 µM with BT-549 breast; 3.17 µM in the test with DU-145 prostate; 13.9 µM in the test with EKVX NSCLC; 1.94 µM with HL-60(TB) leukemia; 1.49 µM with MOLT-4 leukemia; 7.01 µM in the test with SNB-75 CNS. The figures for the TGI in the test on UACC-257 melanoma and with UACC-62 melanoma were 3.74 µM and 2.86 µM, respectively.

Take `Cc1cc(Nc2nc(-c3ccncc3)nc3ccccc23)n[nH]1`: the GI50 in the test with BT-549 breast is 9.09 µM; in the test with DU-145 prostate, 24.2 µM; with HL-60(TB) leukemia, 10.7 µM; in the test with MOLT-4 leukemia, 33.9 µM; with NCI-H226 lung it was 13.8 µM; in the test with NCI-H522 lung, 13.1 µM. For the same molecule, the GI50 in the test with UACC-257 melanoma is 48 µM. Moreover, the TGI in the test on BT-549 breast, in the test with DU-145 prostate, in the test on HL-60(TB) leukemia, in the test with MOLT-4 leukemia, in the test on NCI-H226 lung and in the test with NCI-H522 lung was more than 100 µM each time. In the test with UACC-257 melanoma, this molecule displayed a TGI of more than 100 µM.

Consider `Nc1ccn(C2OC(C(OC3OC(CO)C(O)C(N)C3O)C(O)C(O)C(O)C(O)CO)C(N)C(O)C2O)c(=O)n1` (stereo unspecified), for which the TGI was 99 µM in the test with BT-549 breast; more than 100 µM in the test on DU-145 prostate; more than 100 µM in the test with EKVX NSCLC; more than 100 µM in the test with HL-60(TB) leukemia; more than 100 µM in the test on MOLT-4 leukemia; 93.5 µM with NCI-H522 lung. Besides, the TGI in the test on UACC-257 melanoma and with UACC-62 melanoma was more than 100 µM each time.

In the case of `COc1cc2c(cc1OCCCOc1ccc(-c3nc4ccc(N5CCN(C)CC5)cc4[nH]3)cc1)N=C[C@@H]1CCCN1C2=O`, the GI50 in the test with BT-549 breast, with DU-145 prostate, with EKVX NSCLC, in the test on HL-60(TB) leukemia, in the test on MOLT-4 leukemia and with NCI-H226 lung was less than 0.01 µM each time. Further, the results for the GI50 in the test with NCI-H522 lung, in the test on SNB-75 CNS and in the test with UACC-62 melanoma were less than 0.01 µM, less than 0.01 µM and less than 0.0133 µM, respectively. For the same molecule, the TGI in the test with BT-549 breast was less than 0.01 µM; in the test with DU-145 prostate, 6.98 µM; in the test with EKVX NSCLC it was less than 0.01 µM; in the test on HL-60(TB) leukemia it was less than 0.01 µM; with MOLT-4 leukemia, less than 0.01 µM; in the test with NCI-H226 lung, less than 0.01 µM. Moreover, the TGI with NCI-H522 lung is less than 0.01 µM; with SNB-75 CNS, 11.8 µM; in the test on UACC-62 melanoma, less than 0.0201 µM.

With `COc1cccc2c1cc1c3c(cc4c(c32)OCO4)C(=O)N1`, the GI50 was 2.08 µM in the test with BT-549 breast; 8.79 µM with DU-145 prostate; 7.59 µM in the test on HL-60(TB) leukemia; 5.8 µM with NCI-H226 lung; 2.62 µM in the test with NCI-H522 lung; 2.4 µM with SNB-75 CNS. The figures for the GI50 with UACC-257 melanoma and in the test with UACC-62 melanoma were 27.3 µM and 4.65 µM, respectively. Moreover, the TGI was found to be 4.74 µM in the test with BT-549 breast; 66.4 µM in the test with DU-145 prostate; 27.8 µM with HL-60(TB) leukemia; 54 µM in the test on NCI-H226 lung; 8.96 µM in the test on NCI-H522 lung; 11.1 µM in the test with SNB-75 CNS. Besides, the TGI in the test with UACC-257 melanoma and in the test on UACC-62 melanoma was more than 100 µM in each case.
